pIC50: −log10 of the molar value. Read-outs that look alike come from different tables or passages of the source.
Experiments:
[1] = molecular target: T1, CIB1 and αIIb interaction (CIB1-GST : F-αIIb peptide) (Homo sapiens, UniProt Q99828); assay: FP assay, 1536-well qHTS format (primary and confirmatory screen); format: binding; conditions: for IC50: read-out: IC50 [μM] (confirmatory screen); for pIC50: read-out: IC50
T1 construct: made in house; host or cells: BL-21 plus RIL cells (E. coli)
T1 sequence (Q99828 1-191): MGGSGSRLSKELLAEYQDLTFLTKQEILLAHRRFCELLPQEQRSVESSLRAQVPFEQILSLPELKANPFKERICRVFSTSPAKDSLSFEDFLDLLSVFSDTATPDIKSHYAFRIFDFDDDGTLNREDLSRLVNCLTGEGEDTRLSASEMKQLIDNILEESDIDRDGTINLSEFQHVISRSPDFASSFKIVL

[2] = molecular target: T2, GST-CIB1 : F-scrambled peptide (Homo sapiens, UniProt Q99828); assay: FP scrambled-peptide counter screen, 1536-well format; format: binding; conditions: for IC50: read-out: IC50 [μM] (counterscreen)
T2 construct: made in house; host or cells: BL-21 plus RIL cells (E. coli)
T2 sequence (Q99828 1-191): T1 sequence (Q99828 1-191)

[3] = confirmatory screen, qHTS curve class, negative sign = inhibitory curve
[4] = qHTS FP screen hits, Table S2, negative = inhibition
[5] = counterscreen, qHTS curve class, negative sign = inhibitory curve
[6] = qHTS primary screen hits, Table S2, negative = inhibition
[7] = qHTS primary screen hits, Table S2, negative sign = inhibitory curve, several classes where COUNT > 1
[8] = qHTS primary screen hits, Table S2
[9] = Table S3, confirmatory screen, YES/NO call
[10] = Table S3, confirmatory screen, qHTS curve class, a negative sign marks inhibitory curves
[11] = Table S3, confirmatory screen, negative = inhibition
[12] = Table S3, counterscreen, qHTS curve class, a negative sign marks inhibitory curves
[13] = Table S3, counterscreen, negative = inhibition
[14] = qHTS FP screen hits, Table S2, one class per curve where COUNT > 1, negative sign = inhibitory curve
[15] = qHTS primary screen of LOPAC/NPACT libraries, negative = inhibition
[16] = qHTS primary screen of LOPAC/NPACT libraries, negative sign = inhibitory curve
[17] = qHTS primary screen of LOPAC/NPACT libraries

Structure (SMILES)	Efficacy (%) [1, 4] [%]	pIC50 ([1]; qHTS FP screen hits, Table S2)	Efficacy (%) (counterscreen) ([2]; counterscreen)	Curve Class (counterscreen) [2, 5]	Efficacy (%) [1, 6] [%]	Curve Class [1, 7]	pIC50 [1, 8]	Curve Class (confirmatory screen) [1, 10]	Efficacy (%) (confirmatory screen) [1, 11]	Curve Class (counterscreen) [2, 12]	Efficacy (%) (counterscreen) [2, 13]	IC50 ([2]; Table S3, counterscreen) [µM]	also measured
CC(C)C(=O)OCc1ccc(-c2nn(Cc3ccccc3)c3ccccc23)o1 [NCGC00479272-01]	-25	4.60	-22	4	–	–	–	–	–	–	–	–	Efficacy (%) (confirmatory screen) ([1]; confirmatory screen): -30%; Confirm? (confirmatory screen) ([1]; confirmatory screen, YES/NO): YES; Curve Class (confirmatory screen) [1, 3]: -2.4; IC50 ([1]; confirmatory screen): 35.5 µM; Confirm? (counterscreen) ([2]; counterscreen, YES/NO): YES
O=C(O)C(F)(F)F.O=C1Nc2ccccc2/C1=N/NC(=S)Nc1cccnc1 [NCGC00242647-01]	–	–	–	–	-32	-1.4	4.75	–	–	–	–	–	CONFIRMATORY SCREEN Efficacy (%) ([1]; confirmatory screen): -44%; CONFIRMATORY SCREEN Curve Class ([1]; confirmatory screen, qHTS curve class): 4; COUNTERSCREEN Efficacy (%) ([2]; counterscreen): -17%; COUNTERSCREEN Curve Class ([2]; counterscreen, qHTS curve class): 4
COc1ccc2[nH]c([S+]([O-])Cc3ncc(C)c(OC)c3C)nc2c1 (stereo not shown) [NCGC00016925-10]	–	–	–	–	-35	-2.2	4.97	-1.2	-58	-2.2	-57	35.5	Confirm? (confirmatory screen) [1, 9]: YES; IC50 ([1]; Table S3, confirmatory screen): 28.2 µM
O=C1c2cccc(O)c2C(=O)c2c(O)cccc21 [NCGC00091367-05]	–	–	-17	4	–	–	–	–	–	–	–	–	Confirm? (counterscreen) ([2]; counterscreen, YES/NO): YES
Cn1cc(-c2[nH]c3cc(NC(=O)[C@H](N)C4CCCCC4)cc4c3c2C=NNC4=O)cn1 [NCGC00263132-02]	–	–	–	–	-24	-1.4	5.38	-2.2	-85	-2.1	-107	79.4	Confirm? (confirmatory screen) [1, 9]: YES; IC50 ([1]; Table S3, confirmatory screen): 50.1 µM
CC(C)(O)CCc1ccc(OCc2cc(-c3cccc(OC(F)F)c3)c3ncccc3c2)cc1 [NCGC00249759-02]	–	–	–	–	-59	-2.2	4.62	4	-25	4	-28	–	–
COC(=O)c1ccc(O)c2ncc(-c3ccc(C(=O)NCCCN(C)C)cc3)cc12.O=C(O)C(F)(F)F [NCGC00189510-01]	-71	4.35	–	–	–	–	–	4	-26	3	226	89.1	Curve Class [1, 14]: -2.2
Cc1cc(C)nc(NC(=S)N2CCN(c3ccc4nsnc4c3)CC2)c1.O=C(O)C(F)(F)F [NCGC00244160-01]	–	–	-93	-2.2	-85	-2.1	4.30	–	–	–	–	–	Efficacy (%) (confirmatory screen) ([1]; confirmatory screen): -106%; Confirm? (confirmatory screen) ([1]; confirmatory screen, YES/NO): YES; Curve Class (confirmatory screen) [1, 3]: -2.1; IC50 ([2]; counterscreen): 39.8 µM
Cc1coc2c1C(=O)C(=O)c1c-2ccc2c1CCCC2(C)C [NCGC00095709-08]	-65	4.10	–	–	–	–	–	-1.2	-67	-2.2	-67	39.8	Confirm? (confirmatory screen) [1, 9]: YES; IC50 ([1]; Table S3, confirmatory screen): 39.8 µM; Curve Class [1, 14]: -2.2
N#Cc1ccc(NS(=O)(=O)c2ccc(Nc3nc(-c4ccccc4)cs3)cc2)cc1.O=C(O)C(F)(F)F [NCGC00262382-01]	-59	4.15	-84	-2.2	–	–	–	–	–	–	–	–	Efficacy (%) (confirmatory screen) ([1]; confirmatory screen): -103%; Confirm? (confirmatory screen) ([1]; confirmatory screen, YES/NO): YES; Curve Class (confirmatory screen) [1, 3]: -2.1; IC50 ([1]; confirmatory screen): 44.7 µM; Curve Class [1, 14]: -2.2; IC50 ([2]; counterscreen): 44.7 µM
OC[C@H]1O[C@@H](Oc2ccc(O)c3cccc(O)c23)[C@H](O)[C@@H](O)[C@@H]1O [NCGC00385147-01]	-54	4.50	–	–	–	–	–	-1.1	-85	-1.1	-86	15.8	Confirm? (confirmatory screen) [1, 9]: YES; IC50 ([1]; Table S3, confirmatory screen): 11.2 µM; Curve Class [1, 14]: -2.2
Cl.Nc1cc(C(F)(F)F)ccc1S [NCGC00262926-01]	–	–	-35	-1.4	-84	-1.1	4.55	–	–	–	–	–	Efficacy (%) (confirmatory screen) ([1]; confirmatory screen): -117%; Confirm? (confirmatory screen) ([1]; confirmatory screen, YES/NO): YES; Curve Class (confirmatory screen) [1, 3]: -1.1; IC50 ([1]; confirmatory screen): 22.4 µM; Confirm? (counterscreen) ([2]; counterscreen, YES/NO): YES; IC50 ([2]; counterscreen): 12.6 µM
Cl.O=S(=O)(Nc1nccs1)c1ccc(NCc2cc(Cl)ccc2O)cc1 [NCGC00273561-01]	–	–	-36	4	-27	-1.4	4.70	–	–	–	–	–	Efficacy (%) (confirmatory screen) ([1]; confirmatory screen): -48%; Confirm? (confirmatory screen) ([1]; confirmatory screen, YES/NO): YES; Curve Class (confirmatory screen) [1, 3]: -2.4; IC50 ([1]; confirmatory screen): 50.1 µM; Confirm? (counterscreen) ([2]; counterscreen, YES/NO): YES
O=C(O)C(F)(F)F.O=C(O)c1ccc(-c2ccc3ncnc(N4CCOCC4)c3c2)o1 [NCGC00229619-01]	–	–	–	–	-16	-1.4	5.40	-1.4	-29	-2.4	-53	5.6	Confirm? (confirmatory screen) [1, 9]: YES; IC50 ([1]; Table S3, confirmatory screen): 10 µM
CC(C)c1ccc(NC(=S)N/N=C2\C(=O)Nc3ccccc32)cc1.O=C(O)C(F)(F)F [NCGC00242646-01]	–	–	–	–	-16	-1.4	5.00	4	-28	-1.2	-36	12.6	Confirm? (counterscreen) ([2]; Table S3, counterscreen, YES/NO call): YES
O=C(O)C(F)(F)F.O=C(O)c1ccc(O)c2ncc(N3CCN(Cc4ccccc4)CC3)cc12 [NCGC00241045-04]	–	–	–	–	-24	-2.4	4.25	–	–	–	–	–	–
COc1c(C)c(OCC(O)C(C)(C)O)cc2c1CNC2=O (stereo not shown) [NCGC00385487-01]	–	–	–	–	–	–	–	–	–	–	–	–	Efficacy (%) [1, 15]: -28%; Curve Class [1, 16]: -2.4; pIC50 [1, 17]: 4.25
Cc1cccc(C)c1-n1c(=O)c2cnc(Nc3ccc(N4CCN(C)CC4)cc3)nc2n2c3ccccc3nc12 [NCGC00378811-02]	–	–	–	–	–	–	–	–	–	–	–	–	Efficacy (%) [1, 15]: -28%; Curve Class [1, 16]: -2.4; pIC50 [1, 17]: 4.25
CC[C@@H](CO)NC(=O)[C@@H]1C=C2c3cccc4c3c(cn4C)C[C@H]2N(C)C1 [NCGC00024027-09]	-89	4.35	–	–	–	–	–	–	–	–	–	–	Curve Class [1, 14]: -2.2

Reference: publication PMC11249646, “Small-Molecule Disruptors of the Interaction between Calcium- and Integrin-Binding Protein 1 and Integrin αIIbβ3 as Novel Antiplatelet Agents” (ACS Pharmacology & Translational Science, 2024)
